Experimental data from paper PMC2873402, “Discovery of High-Affinity Protein Binding Ligands – Backwards” (PLoS ONE, 2010).
Bridge positions count the residues as written; N and C are the ends. Ends that are not written are not given here. I, II: the chains in the order shown. * marks the point of attachment. StBu = CC(C)(C)S*

Target: AKT1 (Homo sapiens, UniProt P31749)
Assay: Protein array (ProtoArray), binding to AKT1
Parameters: purchased Life Technologies
Conditions: 200 nM synbody, fluorescently labeled streptavidin
Excerpt: To test this approach, a candidate synbody was constructed using two peptides, […] and […], referred to as peptides 1 and 2, respectively. The sequences of the first 17 aa of these peptides were generated using a random number generator and three constant positions on the C-terminus that served as a spacer between the linker scaffold and the active portion of each peptide. A divergent synthetic method was used in which peptide 1 was synthesized from C to N terminus from the α-amine of lysine and peptide 2 was synthesized from the ε-amine of lysine (Figure 2A, Materials and Methods S1, Figure S1). The synbody was tagged on the C-terminus with biotin and screened against a Life Technologies ProtoArray™. ProtoArrays are nitrocellulose coated slides onto which 8,303 recombinant human proteins have been spotted. After a 2-hour incubation, the array was washed and bound synbody was detected using fluorescently labeled streptavidin. […]
Synbodies were screened on an Invitrogen ProtoArray™ (Life Technologies, Carlsbad, CA, USA) detected with Alexa-555 labeled streptavidin (Life Technologies), and scanned using a Perkin Elmer ProScan Array HTP. The spots were analyzed using GenePix Pro (Molecular Devices, Sunnyvale, CA, USA) and data were processed using Genespring GX (Agilent Technologies, Santa Clara, CA, USA). […]

AKT1, sequence (P31749 whole entry): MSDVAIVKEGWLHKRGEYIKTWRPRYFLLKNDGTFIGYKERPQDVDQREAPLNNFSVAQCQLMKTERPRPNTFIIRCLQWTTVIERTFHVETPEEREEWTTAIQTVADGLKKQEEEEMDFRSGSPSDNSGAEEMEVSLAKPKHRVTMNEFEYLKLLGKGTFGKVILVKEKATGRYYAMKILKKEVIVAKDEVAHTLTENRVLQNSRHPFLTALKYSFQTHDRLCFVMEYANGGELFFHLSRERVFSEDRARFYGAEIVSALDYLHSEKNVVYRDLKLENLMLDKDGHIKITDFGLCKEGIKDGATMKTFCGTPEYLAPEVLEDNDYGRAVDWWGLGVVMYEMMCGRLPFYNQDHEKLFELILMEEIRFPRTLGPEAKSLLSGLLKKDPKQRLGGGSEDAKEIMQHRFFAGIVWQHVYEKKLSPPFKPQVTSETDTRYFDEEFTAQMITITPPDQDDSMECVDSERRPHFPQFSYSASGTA

I: AHKVVPQRQIRHAYNRYGSGKC(StBu)-NH2 / II: FRGWAHIFFGPHVIYRGGSG (amide I:21-II:C) [synbody]
binding to AKT1 on protein array (top 10 proteins): twice in the top 10 proteins bound by the synbody
